# Data: patent US8653071B2, “α4β2 neuronal nicotinic acetylcholine receptor ligands” (Suven Life Sciences Limited, priority 2009, dated 2014)
# How the values were obtained:
# Male Sprague Dawley rats = assay: DRL-72s model of animal depression; format: in vivo; settings: p.o.; rat
# Method: The antidepressant properties of compounds of this invention were evaluated using a model of animal depression: the DRL-72s model. Male Sprague Dawley rats were used as experimental animals. Rats are trained to lever press for a 4″ access to 0.025 ml of water for each correct response during daily 60 minute sessions. All testing takes place on weekdays only. At the beginning of each session, the house light is illuminated and remains lit until the session ends. No other stimuli are presented during testing. After successful lever press training, rats are then required to respond under a DRL-24 second schedule, where only lever presses that are separated by 24 seconds are reinforced. Upon stable responding on a DRL-24 second schedule (5-10 sessions), rats are trained on a DRL-72 second schedule until responding stabilizes at approximately 15% efficiency (approx 25-35 sessions). Specifically, rats receive a reinforcer for each response that is emitted at least 72 seconds after the previous response (IRT). […] Efficiency is recorded as number of reinforced responses÷total number of responses. After stable baseline responding is achieved, defined as responding for 4 consecutive sessions with no more than 10% variability, animals begin drug testing. Animals receive drug no more than 1× per week.
# Male Wister rats [1] = assay: Reversal of formalin induced nociception; format: in vivo; settings: p.o.; rat
# Method: Reversal of Formalin Induced Nociception
# The anti-nociceptive properties of compounds of this invention were evaluated using a model of pain: the Formalin Induced Nociception model. Male Wister rats (230-280 grams) obtained from N. I. N. (National Institute of Nutrition, Hyderabad, India) was used as experimental animals.
# Rats were habituated for 20 minutes in the arena before the experiment was started. Duration of licks, bites and flinches were noted from 0-10 minutes and 20-35 minutes after administration of formalin, subplantar into the right hind paw at concentrations of 5% v/v. 50 μL of water for injection was injected into the right hind paw of the rats of the sham group. Compounds of this invention were administered orally prior to formalin administration.
# in vivo = settings: male, Wistar, rat, po, 15 mg/kg
# Method: Rodent Brain Penetration Study
# Three animals were housed in each cage. Animals were given water and food ad libitum throughout the experiment, and maintained on a 12 hours light/dark cycle.
# NCE compound was dissolved in water and administered orally. At Tmax (0.5, 1.0 and 2.0) animals were sacrificed to collect the plasma and brain tissue and were homogenized. Plasma and Brain was stored frozen at −20° C. until analysis. The concentrations of the NCE compound in plasma and Brain were determined using LC-MS/MS method.
# The NCE compounds were quantified in plasma and brain homogenate by validated LC-MS/MS method using solid phase extraction technique. NCE compounds were quantified in the calibration range of 1-500 ng/mL in plasma and brain homogenate. Study samples were analyzed using calibration samples in the batch and quality control samples spread across the batch. Extents of brain-blood ratio were calculated (Cb/Cp).
# Male Wister rats [2] = assay: Object recognition task model; format: in vivo, rat; settings: 1 mg/kg, p.o.
# Method: Object Recognition Task Model
# The cognition-enhancing properties of compounds of this invention were estimated using a model of animal cognition: the object recognition task model.
# Male Wister rats (230-280 grams) obtained from N. I. N. (National Institute of Nutrition, Hyderabad, India) was used as experimental animals. Four animals were housed in each cage. […] Also the rats were habituated to individual arenas for 1 hour in the absence of any objects.
# One group of 12 rats received vehicle (1 mL/Kg) orally and another set of animals received compound of the formula (I) either orally or i.p., before one hour of the familiar (T1) and choice trial (T2).
# The experiment was carried out in a 50×50×50 cm open field made up of acrylic. In the familiarization phase, (T1), the rats were placed individually in the open field for 3 minutes, in which two identical objects (plastic bottles, 12.5 cm height×5.5 cm diameter) covered in yellow masking tape alone (a1 and a2) were positioned in two adjacent corners, 10 cm. from the walls. After 24 hours of the (T1) trial for long-term memory test, the same rats were placed in the same arena as they were placed in T1 trial. Choice phase (T2) rats were allowed to explore the open field for 3 minutes in presence of one familiar object (a3) and one novel object (b) (Amber color glass bottle, 12 cm high and 5 cm in diameter). Familiar objects presented similar textures, colors and sizes. During the T1 and T2 trial, explorations of each object (defined as sniffing, licking, chewing or having moving vibrissae whilst directing the nose towards the object at a distance of less than 1 cm) were recorded separately by stopwatch. Sitting on an object was not regarded as exploratory activity, however, it was rarely observed.
# T1 is the total time spent exploring the familiar objects (a1+a2).
# T2 is the total time spent exploring the familiar object and novel object (a3+b).
# The object recognition test was performed as described by Ennaceur, A., Delacour, J., 1988, A new one-trial test for neurobiological studies of memory in rats—Behavioural data, Behav. Brain Res., 31, 47-59.
# Male Wister rats [3] = assay: Acute food intake study (animal model of hyperphagia); format: in vivo, rat; settings: oral
# Method: The appetite suppressing properties of compounds of this invention were studied using an animal model of hyperphagia.
# Male Wister rats (200-210 grams) obtained from Raj Biotech, India were used as experimental animals. The experiment consisted of 6 days. The rats were adapted to the 18 hour fasting and 6 hour feeding pattern. The animals were housed in a group of three in the cages provided with the fasting grills and were fasted for 18 hours. After 18 hour fasting the rats were separated and placed individually in a cage. Weighed amount of feed was provided to rats for 6 hour and the feed intake at 1, 2, 4 and 6 hours was recorded. Again the rats were regrouped and fasted for 18 hour. The above procedure was followed for 5 days. The average cumulative food intake by the rats on the last 3 days was calculated. Animals were randomised on the basis of their last three days food intake.
# One group of 8 rats received vehicle (2 mL/Kg) orally and another set of animals received compound of the formula (I) orally. Then the rats were given access to food and the food intake at 1, 2, 4 and 6 hours was recorded. The food intake by the rats treated with test compound was compared with the vehicle treated group by using students‘t’ test.
# [4] = Rodent pharmacokinetic study; format: in vivo; settings: Wistar, in vivo, Wister rat/Male
# How it was run: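 Rats, fasted overnight, received NCE orally (15 or 5 mg/kg) and intravenously (5 mg/kg) on day 0 and day 2. Jugular blood sampled pre-dose to 24 h (n=3); plasma NCE measured by LC-MS/MS. Cmax, Tmax, AUCt, T1/2 and bioavailability derived by non-compartmental analysis.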
smiles,measurement,setting,value
"CNCC1CC2CC2N1c1cccnc1.Cl (centres unmarked) [Example 4, N-[2-(Pyridin-3-yl)-2-azabicyclo[3.1.0]hex-3-ylmethyl]methylamine hydrochloride]",Dose (DRL-72s),Male Sprague Dawley rats,"≧10 mg/kg, p.o."
same,Dose (reversal of formalin induced nociception),Male Wister rats [1],"≦10 mg/kg, p.o."
same,Kp,in vivo,11.7 ± 2.66
same,Inference,Male Wister rats [2],Active
same,"Exploration time mean ± S.E.M, Familiar object",Male Wister rats [2]; choice trial,7.64 ± 1.052 s
same,"Exploration time mean ± S.E.M, Novel object",Male Wister rats [2]; choice trial,14.21 ± 2.364 s
same,Inference,Male Wister rats [3],Active
same,"% Suppression of food intake compared to vehicle, 1 Hour","Male Wister rats [3]; 1 Hour, 18 hour fasted rats",38.45%
same,"% Suppression of food intake compared to vehicle, 2 Hour","Male Wister rats [3]; 2 Hour, 18 hour fasted rats",30.23%
same,"% Suppression of food intake compared to vehicle, 4 Hour","Male Wister rats [3]; 4 Hour, 18 hour fasted rats",25.60%
same,"% Suppression of food intake compared to vehicle, 6 Hour","Male Wister rats [3]; 6 Hour, 18 hour fasted rats",18.63%
same,AUC(0-t),"[4]; 5 mg/kg, Intravenous",1670 ± 154 ng·h/mL
same,Cmax,"[4]; 5 mg/kg, Intravenous",956 ± 164 ng/mL
same,Tmax,"[4]; 5 mg/kg, Intravenous",0.08 h
same,half-life,"[4]; 5 mg/kg, Intravenous",5.82 ± 0.53 h
same,bioavailability,[4]; 15 mg/kg Per-Oral vs 5 mg/kg Intravenous,105 ± 9%
same,AUC(0-t),"[4]; 15 mg/kg, Per-Oral",5280 ± 652 ng·h/mL
same,Cmax,"[4]; 15 mg/kg, Per-Oral",1560 ± 294 ng/mL
same,Tmax,"[4]; 15 mg/kg, Per-Oral",0.33 ± 0.14 h
same,half-life,"[4]; 15 mg/kg, Per-Oral",4.48 ± 0.76 h
